Target: T1, UGT2B7 (Homo sapiens, UniProt P16662)
T1 sequence (P16662 24-529): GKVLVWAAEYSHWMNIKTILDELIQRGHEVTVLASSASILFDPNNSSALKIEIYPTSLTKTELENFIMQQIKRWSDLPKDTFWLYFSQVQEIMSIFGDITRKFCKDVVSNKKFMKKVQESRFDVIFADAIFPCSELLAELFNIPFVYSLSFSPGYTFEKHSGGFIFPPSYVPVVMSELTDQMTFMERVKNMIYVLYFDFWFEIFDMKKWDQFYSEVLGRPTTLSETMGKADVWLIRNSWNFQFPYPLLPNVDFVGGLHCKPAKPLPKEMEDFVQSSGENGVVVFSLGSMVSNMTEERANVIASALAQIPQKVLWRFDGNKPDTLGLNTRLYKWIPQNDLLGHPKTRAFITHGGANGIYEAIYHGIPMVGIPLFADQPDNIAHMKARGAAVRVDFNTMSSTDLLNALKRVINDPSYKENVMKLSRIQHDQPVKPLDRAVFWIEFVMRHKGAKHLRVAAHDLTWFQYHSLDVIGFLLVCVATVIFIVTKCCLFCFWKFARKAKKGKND
Assay: inhibition of naloxone glucuronidation in human liver microsomes, HPLC
Type: biochemical

CC/C(=C(\c1ccccc1)c1ccc(OCCN(C)C)cc1)c1ccccc1 [tamoxifen]
Ki: 37.7 µM
